Laboratory results published in US8969549B2, “Antioxidant small molecules aimed at targeting metal-based oxidative stress in neurogenerative disorders” (Texas Christian University, priority 2013, dated 2015).

Assays:
[1] = DPPH radical quenching assay; format: biochemical; conditions: 1250 μM
Description: (§1) Compound 2 (Chart 2) exists largely as the pyridol tautomer as confirmed by NMR. The reactivity of pyridol/pyridone based compounds such as chelidamic acid have shown reactivity with OH radicals in solution to form bis-pyridones and is a different mechanism than pyridine based compounds such as 1 (Chart 2). This reactivity is attributed to the enhanced antioxidant capacity observed. Chelidamic acid is the pyridone congener to the starting material used to produce 1. Therefore similar methodologies to produce 2 in gram scale quantities were employed.
As radicals are one product of miscompartmentalized metal ions, radical scavenging capability of compounds 1-3 (Chart 4) was tested using the DPPH assay. DPPH (2,2-diphenyl-1-picrylhydrazyl), is a dark purple (λmax=540 nm), stable free radical in solution that can be reduced to DPPHH in the presence of molecules with radical scavenging activity. This process results in a color change from dark purple to light yellow and can be followed spectroscopically by the decrease of the band at 540 nm. Applicants have, therefore, utilized this method to measure radical scavenging capability of their own organic molecules. BHT (butylhydroxytoluene) was used as a positive control due to its known antioxidant properties.
DPPH stock solution was prepared by dissolving 25 mg in 100 mL of absolute EtOH. The working radical solution was prepared by dilution with absolute EtOH to an absorbance of 1.3 at 512 nm. Stock solutions of the compounds tested were dissolved in DI H2O and EtOH 95% respectively and serial dilutions were made to get different concentrations. For the analysis 2 mL of the solutions were incubated with 2 mL of DPPH working solutions in the dark for 24 h. as well as 2 mL of DPPH working solution with 2 mL of H2O or EtOH to serve as blank. Analysis of the solutions was performed as follows: 1 mL of the sample solution was diluted with 1 mL of H2O shaken and the absorbance was measured at 515 nm.

[2] = MTT cytotoxicity assay; format: cell-based; conditions: mouse, HT-22 hippocampal neuronal cells, HT-22 cells
Description: As these compounds show potential for future in vivo studies, the 3-(4,5-dimethythiazol-2-yl)-2,5-diphenyl tetrazolium bromide (MTT) assay was performed in order to test compounds 2, 3 of Chart 4 for cytotoxicity with HT-22 cells, which is a hippocampal neuronal cell line extracted from mice. This is a colorimetric assay that measures the mitochondrial activity of living cells in which MTT crosses into the mitochondria where it is reduced to media insoluble formazan (dark purple), which is later solubilized in DMSO and measured spectroscopically (λmax=540 nm). Since the reduction of MTT can only occur in living cells with undamaged mitochondria, this is a good assay to measure cell proliferation and cytotoxicity.
For the biological assays mouse hippocampal HT-22 cell line was used, incubated them at 37° C. in a humidified atmosphere 5% CO2, with Dulbecco's Modified Eagle Medium (500 ml) containing penicillin/streptomycin 100× (5 ml), Glutamine (100 mM, 5 ml), charcoal strip fetal bovine serum. […]
(§2) (3-(4,5-dimethylthiazol-2-yl)-2,5-diphenyltetrazolium bromide) cells were seeded in a 96 well plate with a density of 5000 cells per well (in 100 μL per well). […] Media is discarded again and 100 μL of DMSO are added to each well, rocked for 5 minutes and the absorbance (A510) was measured using a Molecular Devices Kinetic Microplate Reader.

[3] = test system: HT-22 cells; experiment: Aβ and Cu^+2 toxicity protection (MTT); format: cell-based, mouse; conditions: compound 50 to 120 μM, Aβ 15 μM, copper 15 μM
Description: In FIG. 16 one can observe that compound 2 (LC) is capable of protection from ranges of 50 to 120 μM reaching 37% of increase of cell proliferation with respect to the control (Aβ+Cu^+2). It is also shown that Aβ toxicity (15 μM) increases upon addition of copper (15 μM) opening the possibility of explaining the mechanism of action of LC (compound 2) which involves the possible chelation of copper out of the plaques, although the possibility of assessing ROS is always present. The experiment is completed with several controls including just compound 2, (Chart 4) and just copper, for comparison purposes.
The same analysis was performed for compound 3, (Chart 4), keeping the same ranges of concentrations for the compound (50 to 120 μM) as well as amyloid and copper. Restoring of cell proliferation was observed from 3 to 17%. […]
as §2

[4] = cited from earlier work
[5] = LA/DHLA; cited from earlier work
[6] = log K constants with Cu^II; format: binding
Description: (§3) The ligand is the backbone to PCTA, a potential MRI contrast agent explored in recent years and has been repurposed for Applicant's work.

[7] = log K constants with Zn^II; format: binding
Description: as §3

[8] = test system: Aβ1-40; experiment: Turbidity assay of metal-induced amyloid aggregation; format: biochemical; conditions: for disaggregation of pre-formed metal-induced Aβ1-40 aggregates (turbidity): copper(II) or zinc(II) aggregates, ligand added afterwards
Description: Metal ions (copper and zinc) bind to a histidine rich domain in amyloid producing Aβ in the form of insoluble plaques. This process has been comprehensively studied and described in a number of recent reviews. The aggregation of amyloid can be followed by simple spectroscopic techniques such as turbidity and tyrosine fluorescence studies. These methods were used to investigate the ability of 1 to dissociate pre-formed amyloid aggregates upon addition of metal ions, as well as prevent amyloid aggregation.
Metal ions bind to a histidine rich domain in amyloid producing Aβ in the form of insoluble plaques. This process has been extensively studied and described in a number of recent reviews.

[9] = test system: Aβ1-40; experiment: Tyr^10 fluorescence of Aβ1-40; format: biochemical
Description: FIG. 2 is a graph showing the addition of ligands 1-4 to aggregated Aβ results in reconstitution of Tyr^10 fluorescence which was decreased due to aggregate formation.
To further determine the capability of 1 to prevent or disrupt metal-ion induced amyloid aggregation, Applicant's studied Tyr fluorescence intensity. Recent reports have also utilized the natural fluorescence of the native Tyr^10 in the Aβ1-40 sequence to study the conformational dynamics of amyloid folding as it relates to AD and/or production of H2O2. As Tyr^10 is located within proximity to the metal binding pocket in Aβ1-40 the fluorescence intensity of the phenolic side chain decreases during the folding process due to environmental changes that occur locally. This work was supported by circular dichroism spectra, which verified that fluorescence intensity decreased as the conformation of amyloid changed to beta-sheets. […] Applicant's hypothesis was that Tyr fluorescence intensity should be restored to control levels upon addition of compounds 1-4 (Chart 1) to a solution of pre-formed metal aggregates, as shown below in FIG. 2. […] Similar results were also obtained for amyloid samples co-incubated with 1-4 prior to metal ion addition.
The macrocyclic compound 2 (Chart 2) is also a chelator capable of preventing metal-induced amyloid formation as well as disaggregation. Metal ions bind to a histidine rich domain in amyloid producing Aβ in the form of insoluble plaques. This process has been extensively studied and described in a number of recent reviews. […] Moreover, amyloid aggregates formed by metal ion co-incubation can be disaggregated by the addition of compounds 1 or 2 (FIG. 12b).

[10] = test system: amyloid aggregates; experiment: TEM imaging of copper-induced amyloid aggregates; format: biochemical; conditions: incubated 12 hours
Description: FIG. 3 is an illustration of TEM Images showing (a) copper induced aggregation of amyloid and (b) its dissolution by 1.
Transmission electron microscopy (TEM) and Scanning Electron Microscopy (SEM) were utilized to study the morphology of the aggregates with and without chelators, as well. […] Aliquots from the stock used to make grid (a) were then incubated with 1 for 12 hours and then prepared for microscopy. The sizes of the aggregates upon treatment with 1 are an average of 1-2 orders of magnitude smaller and observably more diffuse, as shown in grid (b). SEM images also confirm the ability of the chelates to affect aggregate size as well.

[11] = ABTS radical assay standardized against Trolox; format: biochemical; conditions: ligand concentration 100 μM
[12] = Cu-ascorbate redox system with coumarin-3-carboxylic acid (CCA); format: biochemical
Description: As increased levels of ROS are associated with AD, Applicant's set out to investigate the antioxidant character of 1 compared to the heterocycles 2 and/or 3. […] Moreover, many of the pathways proposed to produce ROS leading to AD pathology involve metal ions. Applicant's therefore utilized the Cu-ascorbate redox system, Scheme 1, as a model to determine if the ligands could halt copper based redox activity under aerobic conditions:
Faller and co-workers employed this system to investigate the redox chemistry of amyloid systems with Cu. Coumarin-3-carboxylic acid (CCA), which generates fluorescent 7-hydroxy-CCA in the presence of hydroxyl radicals, was used to quantify the reduction of oxygen by copper redox-cycling in the presence of ascorbate.

[13] = test system: FRDA cells; experiment: Calcein AM viability assay with BSO; format: cell-based, human; conditions: Homo sapiens, 48 hour BSO 1 mM, compound 1 nM final, read-out: cell viability compared to untreated control cells
Description: FIG. 5 is a graph showing a Calcien AM viability assay of FRDA cells after 48 hour exposure to BSO [1 mM] with 1-4 [1 nM final].
FIG. 10 is a graph showing Calcein AM viability assay of FRDA cells after 48 hour exposure to BSO [1 mM] followed by addition of 2 [various concentrations].
FRDA cells have higher levels of ROS due to mitochondrial misfunction associated with frataxin expression and therefore serve as a good model for ROS protection. […] Calcein AM, a non-fluorescent, hydrophobic compound that easily permeates intact, live cells, was used as an indicator for cell viability.
This dose response is visualized in the fluorescent cell images shown in FIG. 11 with increased cell survival corresponding to increasing 2 in the nM range.

[14] = test system: FRDA cells; experiment: DCFH-DA ROS assay with BSO; format: cell-based, human; conditions: 12 hours BSO 1 mM, compound 4 nM
Description: FIG. 6 is a graph showing DCFH-DA fluorescent response in FRDA cells after 12 hours exposure to BSO [1 mM] with 1-4 [4 nM].
FIG. 7 is a graph of DCFH-DA fluorescent response in FRDA cells after 12 hours exposure to BSO [1 mM] showing dose dependence with 1.
FIG. 9 is a graph of DCFH-DA fluorescent response in FRDA cells after 12 hours exposure to BSO [1 mM] showing dose dependence with 1 and 2.
The antioxidant activity of compound 1 compared to compounds 2-3 (Chart 1) was then studied using the cell-permeable fluorophore 2,7′-Dichlorodihydrofluorescin diacetate (DCFH-DA) as an indicator for ROS. DCFH-DA diffuses into cells and is deacetylated by cellular esterases to non-fluorescent 2′,7′-Dichlorodihydrofluorescin (DCFH). This species is subsequently oxidized to the highly fluorescent 2′,7′-Dichlorodihydrofluorescein (DCF) species in the presence of ROS. The fluorescent intensity is directly proportional to the amount of ROS present in cell cytosol. BSO (2-amino-4-(butylsulfonimidoyl)butanoic acid) was used to inhibit the first step of de novo glutathione synthesis, allowing us to observe the elevated intra-cellular [ROS] are thereby observed.
Cellular studies were carried out to evaluate the intra-cellular antioxidant efficacy and toxicity of compound 2 (Chart 2) compared to 1 using the cell-permeable fluorophore 2,7′-dichlorodihydrofluorescin diacetate (DCFH-DA) as an indicator for ROS. DCFH-DA diffuses into cells and is deacetylated by cellular esterases to non-fluorescent 2′,7′-dichlorodihydrofluorescin (DCFH) which is subsequently oxidized to the highly fluorescent 2′,7′-dichlorodihydrofluorescein (DCF) species in the presence of ROS. The fluorescence intensity is directly proportional to the amount of ROS present in cell cytosol.^11 BSO (2-amino-4-(butylsulfonimidoyl)butanoic acid) is a commonly used model for oxidative stress via inhibition of cytosolic glutathione synthesis resulting in elevated intra-cellular [ROS] and an increased fluorescent signal in the presence of DCFH (FIG. 9).

[15] = test system: two separate cell lines; experiment: Preliminary cell-viability screen; format: cell-based
Description: as §1

**Q.** What does the source list for O=C(CCCCC1CCSS1)N1CCNCCNCCNCC1 (racemic) [Compound 2 (Chart 4), (±)-5-(1,2-dithiolan-3-yl)-1-(1,4,7,10-tetraazacyclododecan-1-yl)pentan-1-one]?
**A.** quenching of the DPPH radical [1]: equivalent amount of radical; EC50 at 48 h [2]: 312 µM; increase of cell proliferation with respect to the control (Aβ+Cu^+2) [3]: 37%

**Q.** What does the source list for O=C(O)CCCC[C@@H](S)CCS (racemic) [DHLA, dihydrolipoic acid]?
**A.** pKa [4]: 4.7; redox potential [5]: −320 mV

**Q.** Which “log K constants Cu^II” value [6] does the source give for c1cc2nc(c1)CNCCNCCNC2 [1 (Chart 1), pyclen] here?
**A.** 20

**Q.** What about the “log K constants Zn^II” value [7] of the same molecule?
**A.** 14

**Q.** And the “disaggregation of pre-formed metal-induced Aβ1-40 aggregates (turbidity)” value [8]?
**A.** reversed

**Q.** And the “disaggregation of pre-formed metal-induced Aβ1-40 aggregates (turbidity)” value ([8]; listed as 1 (Chart 2))?
**A.** disaggregated

**Q.** What about the “prevention of metal-induced Aβ1-40 aggregation (turbidity)” value ([8]; ligand co-incubated with amyloid before copper(II) or zinc(II) addition) of the same molecule?
**A.** prevents formation of aggregations

**Q.** And the “reconstitution of Tyr^10 fluorescence of aggregated Aβ1-40” value ([9]; ligand added to pre-formed metal aggregates)?
**A.** equally effective

**Q.** What about the “prevention of loss of Tyr^10 fluorescence of Aβ1-40” value ([9]; ligand co-incubated prior to metal ion addition, 24 hours) of the same molecule?
**A.** equally effective

**Q.** What about the “decrease of amyloid aggregate size compared to the copper aggregates (TEM)” value [10] of the same molecule?
**A.** 1-2 orders of magnitude

**Q.** What about the “Trolox equivalents (ABTS radical)” value [11] of the same molecule?
**A.** 0.4 Trolox equivalents

**Q.** What about the “OH. generation measured as 7-hydroxy-CCA fluorescence, ligand co-incubated” value ([12]; CCA 100 uM, ascorbate 300 uM, Cu^II 40 uM) of the same molecule?
**A.** prevented entirely

**Q.** What about the “7-hydroxy-CCA signal after addition to running Cu-ascorbate system” value ([12]; added after two minutes co-incubation with CCA) of the same molecule?
**A.** leveling of the 7-hydroxy-CCA signal

**Q.** And the viability at 0.001 µM [13]?
**A.** > 85%

**Q.** And the “increase of ROS over the negative control (media)” value [14]?
**A.** 15%

**Q.** And the “tolerance in cell-viability screen” value [15]?
**A.** large degree of tolerance
